# Experiments:
# [1] = system: peripheral blood cell populations; assay: Effect of PLX5622 after HSCT on peripheral blood cell populations; assay type: in vivo; conditions: PLX5622 10 days after HSCT, D38
# Experimental: FIG. 9. […] (A) Flow cytometry gating for analysis of donor chimerism in PB myeloid cells. (B) Myeloid chimerism in PB was analyzed by flow cytometry at the indicated time point (Horizontal bars represent median values. n=5-6/time point, ns: not significant, Student's t-test). (C) The effect of PLX5622 on PB myeloid cells was analyzed by flow cytometry. Flow cytometry gating for analysis of the indicated cell populations on D38. (D) Quantification of number of the indicated cell populations by flow cytometry (Mean±SEM, n=6/group, ns: not significant, Student's t-test). (E) Representative images of GFP+ and Iba-1+ cells, and DAPI in the cortex of recipient mice at the indicated time points. Scale bars:[…].
# The following FACS antibodies were used in this study. […]
# Approximately 50 ul of peripheral blood per mouse was collected from the facial vein into a 1.5 ml tubes containing 20ul of 0.5M EDTA. […] The resulting cells were analyzed by flow cytometry.
# [2] = system: endogenous microglia; assay: Direct intracerebral injection of GFP bone marrow cells with or without PLX5622 pre-treatment; assay type: in vivo, mouse; conditions: 21-day PLX5622 pre-treatment; 14 days post IC injection
# Experimental: FIG. 1. Microglia replacement after bone marrow transplantation is a slow, inefficient and variable process. (A) Schematic overview of bone marrow transplantation (HSCT). Recipient mice were received intraperitoneal (IP) injection of busulfan for 5 days at 25 mg/kg/day (i.e. 125 mg/kg total dose) and then transplanted with GFP-expressing bone marrow cells via intravenous (IV) injection. Donor chimerism in peripheral blood (PB) and brain myeloid cells was analyzed at the indicated time points. (B and C) Donor chimerism in PB leukocytes (CD45+ cells) and brain myeloid cells (CD45+CD11b+ cells) was analyzed by flow cytometry at the indicated time point. […] GFP chimerism in PB leukocytes (B) (Mean±SEM, n=5-20/time point, ***p<0.001, ns: not significant, ANOVA). GFP chimerism in brain myeloid cells (C) (Mean±SEM, n=5/time point, *p<0.05, **p<0.01, ns: not significant, ANOVA). (D) Flow cytometry analysis of GFP+bone marrow cells 14 days after direct intracerebral (IC) injection with (bottom) and without (top) PLX5622 pre-treatment of recipient mice. […] (F) Quantification of transplanted GFP+bone marrow cells in coronal brain sections. […] Horizontal bars represent mean values (n=3/group, 3 brain slices/animal were quantified. **p<0.01, ***p<0.001, Student's t-test). […] (H) Microglia chimerism was analyzed by flow cytometry 14 days post IV injection. […]
compound,measurement,setting,value
COc1ncc(F)cc1CNc1ccc(Cc2c[nH]c3ncc(C)cc23)c(F)n1 [PLX5622],composition of peripheral blood cell populations,[1],largely unaffected
same,fate of bone marrow cells injected into the brain,[2],"adopted microglia-like morphologies, expressed the microglial marker Iba-1, were more numerous, and dispersed wider into the brain parenchyma"

# From patent US20230398153A1, “A METHOD FOR EFFICIENT MICROGLIA REPLACEMENT” (The Board of Trustees of the Leland Stanford Junior …, priority 2020, published 2023)
